Measurements as given in ChEMBL document CHEMBL1123473, “4,5-Disubstituted primaquine analogues as potential antimalarial agents” (1986).

How the values were obtained:
Plasmodium cynomolgi [1] = experiment: Antimalarial activity against Plasmodium cynomolgi in rhesus monkey 1.0 mg/kg; 0 of 2; format: functional
Plasmodium cynomolgi [2] = experiment: Antimalarial activity against Plasmodium cynomolgi in rhesus monkey at a dose 0.1 mg/kg; 0 of 1; format: functional
Rhesus monkey [3] = experiment: Number of days between the end of the treatment and relapse was reported at a dose 0.1 mg/kg; format: functional, Cercopithecidae
Rhesus monkey [4] = experiment: Number of days between the end of the treatment and relapse was reported at a dose 1.0 mg/kg; format: functional, Cercopithecidae
Plasmodium cynomolgi [5] = experiment: Antimalarial activity against Plasmodium cynomolgi infected rhesus monkey at 0.5 mg/kg dose; cured 4 of 6; format: functional
Plasmodium cynomolgi [6] = experiment: Antimalarial activity against Plasmodium cynomolgi infected rhesus monkey at 0.75 mg/kg dose; 4 of 6; format: functional
Plasmodium cynomolgi [7] = experiment: Antimalarial activity against Plasmodium cynomolgi infected rhesus monkey at 0.25 mg/kg dose; 0 of 6; format: functional
Plasmodium cynomolgi [8] = experiment: Antimalarial activity against Plasmodium cynomolgi infected rhesus monkey at 0.5 mg/kg dose; 1 of 1; format: functional
Plasmodium cynomolgi [9] = experiment: Antimalarial activity against Plasmodium cynomolgi in rhesus monkey at a dose 0.125 mg/kg; 2 of 2; format: functional
Plasmodium cynomolgi [10] = experiment: Antimalarial activity against Plasmodium cynomolgi infected rhesus monkey at 0.25 mg/kg; 2 of 2; format: functional
Plasmodium cynomolgi [11] = experiment: Antimalarial activity against Plasmodium cynomolgi infected Rhesus monkeys (Macaca mulatta) at 0.0625 mg/kg dose; cured 0 of 2; format: functional
Plasmodium cynomolgi [12] = experiment: Antimalarial activity against Plasmodium cynomolgi in rhesus monkey 1.0 mg/kg; 0 of 1; format: functional
Plasmodium cynomolgi [13] = experiment: Antimalarial activity against Plasmodium cynomolgi in rhesus monkey 1.0 mg/kg; 1 of 2; format: functional
Rhesus monkey [14] = experiment: Number of days between the end of the treatment and relapse was reported at a dose 0.316 mg/kg; format: functional, Cercopithecidae
Plasmodium cynomolgi [15] = experiment: Antimalarial activity against Plasmodium cynomolgi in rhesus monkey 0.316 mg/kg; 0 of 1; format: functional
Plasmodium cynomolgi [16] = experiment: Antimalarial activity against Plasmodium cynomolgi in rhesus monkey 0.316 mg/kg; 1 of 2; format: functional
Plasmodium cynomolgi [17] = experiment: Antimalarial activity against Plasmodium cynomolgi in rhesus monkey 1.0 mg; 2 of 2; format: functional
Plasmodium cynomolgi [18] = experiment: Antimalarial activity against Plasmodium cynomolgi in rhesus monkey at a dose 0.1 mg/kg; 0 of 2; format: functional

Work on `COc1cc(NC(C)CCCN)c2nccc(COc3cccc(C(F)(F)F)c3)c2c1Oc1cccc(C(F)(F)F)c1` (centres undefined) yielded a Cures (Plasmodium cynomolgi [1]) of 0, a Cures (Plasmodium cynomolgi [2]) of 0 and a Relapses (Rhesus monkey [3]) of 11. It also gave a Relapses (Rhesus monkey [4]) of 11.
With `COc1cc(NC(C)CCCN)c2ncccc2c1` (centres undefined) [PRIMAQUINE] the Cures (Plasmodium cynomolgi [5]) was 4, the Cures (Plasmodium cynomolgi [6]) was 4 and the Cures (Plasmodium cynomolgi [7]) was 0.
For `COc1cc(NC(C)CCCN)c2nccc(C)c2c1OC` (centres undefined), the Cures (Plasmodium cynomolgi [8]) was 1, the Cures (Plasmodium cynomolgi [9]) was 2 and the Cures (Plasmodium cynomolgi [10]) was 2. For the same compound, the Cures (Plasmodium cynomolgi [11]) was 0.
With `COc1cc(NC(C)CCCN)c2nccc(COc3cccc(C(F)(F)F)c3)c2c1OC` (centres undefined) the Cures (Plasmodium cynomolgi [12]) was 0 and the Relapses (Rhesus monkey [4]) was 12.
`C=Cc1ccnc2c(NC(C)CCCN)cc(OC)c(OC)c12` (centres undefined) showed a Cures (Plasmodium cynomolgi [13]) of 1, a Relapses (Rhesus monkey [14]) of 23 and a Cures (Plasmodium cynomolgi [15]) of 0. For the same compound, the Cures (Plasmodium cynomolgi [2]) was 0, the Relapses (Rhesus monkey [3]) was 9 and the Relapses (Rhesus monkey [4]) was 27.
`COCc1ccnc2c(NC(C)CCCN)cc(OC)c(Oc3cccc(C(F)(F)F)c3)c12` (centres undefined) showed a Relapses (Rhesus monkey [14]) of 28, a Cures (Plasmodium cynomolgi [16]) of 1 and a Cures (Plasmodium cynomolgi [17]) of 2. It also gave a Relapses (Rhesus monkey [3]) of 8 and a Cures (Plasmodium cynomolgi [18]) of 0.
